Read-outs that look alike come from different tables or passages of the source. Marks after values point to notes of the source that are not given here.
Experiments:
Vero-E6 cells = assay: Cytotoxicity CC100 in Vero-E6 cells (72 h); conditions: for CC100 (100% cytotoxic concentration): Vero-E6 cells, 72h; for Cytostatic compounds (asterisk at the label): Table 1 footnote mark
HHV-1, 29R strain = type: cell-based, human Alpha herpesvirus type 1
BHK-21 cells = assay: Cytotoxicity CC100 in BHK-21 cells (6 days)
ZIKV (Zika virus) [1] = assay: Plaque reduction assay (PFU), ZIKV in Vero E6; type: cell-based; conditions: ZIKV, Vero E6, PFU/well 150 ± 25
[2] = tested on: CHIKV (Chikungunya virus); assay: End-point titration technique (EPTT), viral titer reduction factor, CHIKV in Vero E6; type: cell-based; conditions: for Rf (reduction factor of the viral titer): Vero E6, 10TCID50, EPTT
ZIKV (Zika virus) [3] = assay: End-point titration technique (EPTT), cytopathic effect inhibition, ZIKV in Vero E6; type: cell-based; conditions: Vero E6, 10TCID50, EPTT
[4] = tested on: DENV-2 (Dengue virus type 2); assay: End-point titration technique (EPTT), cytopathic effect inhibition, DENV-2 in Vero E6; type: cell-based; conditions: DENV-2, Vero E6, 10TCID50, EPTT
[5] = tested on: DENV-2 (Dengue virus type 2); assay: Plaque reduction assay (PFU), DENV-2 in BHK21; type: cell-based; conditions: for % inhibition (PFU): DENV-2, BHK21, PFU/well 150 ± 25

Row | Compound | CC100 (100% cytotoxic concentration) (Vero-E6 cells) [µg/mL] | Rf (reduction factor of the viral titer) (HHV-1, 29R strain; Vero E6, 10TCID50, EPTT) | CC100 (100% cytotoxic concentration) (BHK-21 cells) [µg/mL] | % inhibition (PFU) (ZIKV (Zika virus) [1]) [%] | other results
1 | CC(C)c1cc2c(cc1O)[C@@]1(C)CCC[C@](C)(C(=O)O)[C@@H]1CC2=O [Compound 23b] | 25 | not active | 12.5 |  | 
2 | CC(C)c1ccc2c(c1O)CC[C@H]1[C@](C)(C(=O)O)CCC[C@]21C [Compound 25] | >25 | not active | >25 | 20 ± 09 | 
3 | COC(=O)[C@]1(C)CCC[C@]2(C)c3cc(OC(C)=O)c(C(C)C)cc3CC[C@@H]12 [Compound 16a] | 50 |  | 50 | 22 ± 13 | Rf (reduction factor of the viral titer) [2]: 10^2; inhibition ECytop (inhibitory cytopathic effect compared to the infection control) (ZIKV (Zika virus) [3]): +
4 | COC(=O)[C@@]1(C)CCC[C@]2(C)c3cc(O)c(C(C)C)cc3C(=O)C[C@@H]12 [Compound 22b] | 25 | not active | 12.5 |  | inhibition ECytop (inhibitory cytopathic effect compared to the infection control) [4]: +
5 | CC(C)c1ccc2c(c1O)CC[C@H]1[C@](C)(CO)CCC[C@]21C [Compound 26] | >25 | not active | >25 |  | inhibition ECytop (inhibitory cytopathic effect compared to the infection control) (ZIKV (Zika virus) [3]): +
6 | CC(C)c1ccc2c(c1)CC[C@H]1C(C)(CO)CCC[C@]21C (some centres unmarked) [Compound 14] | >50 | not active | >50 | 37 ± 15 | % inhibition (PFU) [5]: 30 ± 10%; Rf (reduction factor of the viral titer) [2]: 10^2
7 | COC(=O)[C@@]1(C)CCC[C@]2(C)c3cc(C(C)=O)c(C(C)C)cc3CC[C@@H]12 [Compound 15b] | >50 |  | 50 | 29 ± 14 | % inhibition (PFU) [5]: 68 ± 20%
8 | CC(C)c1cc2c(cc1O)[C@@]1(C)CCC[C@@](C)(C(=O)O)[C@@H]1CC2=O [Compound 23a, liquiditerpenoic acid A] | >50 |  | 50 |  | 
9 | CC(C)c1cc2c(cc1O)[C@@]1(C)CCC[C@](C)(C(=O)O)[C@@H]1CC2 [Compound 19b, lambertic acid] | >50 |  | >50 | 27 ± 17 | % inhibition (PFU) [5]: 35 ± 10%; inhibition ECytop (inhibitory cytopathic effect compared to the infection control) (ZIKV (Zika virus) [3]): +
10 | COC(=O)[C@]1(C)CCC[C@]2(C)c3cc(O)c(C(C)C)cc3CC[C@@H]12 [Compound 18a] | 50 |  | 25 |  | 
11 | CC(C)c1cc2c(cc1O)[C@@]1(C)CCC[C@@](C)(CO)[C@@H]1CC2 [Compound 20a, 18-hydroxyferruginol] | 50 |  | 50 | 19 ± 11 | Cytostatic effect (Vero-E6 cells): cytostatic; Cytostatic compounds (asterisk at the label) (Vero-E6 cells): 20a*; % inhibition (PFU) [5]: 25 ± 10%; Rf (reduction factor of the viral titer) [2]: 10^2
12 | COC(=O)[C@@]1(C)CCC[C@]2(C)c3cc(OC(C)=O)c(C(C)C)cc3C(=O)C[C@@H]12 [Compound 17b] | 50 | not active | 25 |  | inhibition ECytop (inhibitory cytopathic effect compared to the infection control) (ZIKV (Zika virus) [3]): +
13 | COC(=O)[C@]1(C)CCC[C@]2(C)c3ccc(C(C)C)cc3CC[C@@H]12 [Compound 12, methyl dehydroabietate] | >50 |  | 50 | 25 ± 10 | inhibition ECytop (inhibitory cytopathic effect compared to the infection control) (ZIKV (Zika virus) [3]): +
14 | COC(=O)[C@]1(C)CCC[C@]2(C)c3cc(OC(C)=O)c(C(C)C)cc3C(=O)C[C@@H]12 [Compound 17a] | 25 |  | 25 |  | 
15 | COC(=O)[C@]1(C)CCC[C@]2(C)c3cc(O)c(C(C)C)cc3C(=O)C[C@@H]12 [Compound 22a] | 50 |  | 25 |  | 
16 | COC(=O)[C@]1(C)CCC[C@]2(C)c3cc(C(C)=O)c(C(C)C)cc3CC[C@@H]12 [Compound 15a] | >50 |  | 25 |  | 
17 | COC(=O)[C@@]1(C)CCC[C@]2(C)c3cc(O)c(C(C)C)cc3CC[C@@H]12 [Compound 18b] | >50 | not active | 50 | 48 ± 12 | % inhibition (PFU) [5]: 51 ± 8%; Rf (reduction factor of the viral titer) [2]: 10^2
18 | CC(C)c1cc2c(cc1O)[C@@]1(C)CCC[C@@](C)(CO)[C@@H]1CC2=O [Compound 21a] | 25 |  | 12.5 | 27 ± 12 | inhibition ECytop (inhibitory cytopathic effect compared to the infection control) [4]: +; Rf (reduction factor of the viral titer) [2]: 10^2
19 | CC(C)c1ccc2c(c1)CC[C@H]1C(C)(C(=O)O)CCC[C@]21C (some centres unmarked) [Compound 13] | 50 |  | 50 | 19 ± 12 | Cytostatic compounds (asterisk at the label) (Vero-E6 cells): 13*; inhibition ECytop (inhibitory cytopathic effect compared to the infection control) [4]: +
20 | COC(=O)[C@]1(C)CCC[C@]2(C)c3ccc(C(C)C)c(O)c3CC[C@@H]12 [Compound 24, methyl 14-hydroxy-dehydroabietate] | >25 |  | >25 | 51 ± 15 | % inhibition (PFU) [5]: 48 ± 9%; Most active concentration, in μM ([5]; DENV-2 PFU assay, conversion of 3.1 μg/mL): ca. 9.3 μM; Rf (reduction factor of the viral titer) [2]: 10^2
21 | CC(C)c1cc2c(cc1O)[C@@]1(C)CCC[C@](C)(CO)[C@@H]1CC2=O [Compound 21b] | >25 |  | 25 |  | 
22 | COC(=O)[C@@]1(C)CCC[C@]2(C)c3cc(OC(C)=O)c(C(C)C)cc3CC[C@@H]12 [Compound 16b] | 25 | not active | 25 | 29 ± 9 | inhibition ECytop (inhibitory cytopathic effect compared to the infection control) [4]: +; inhibition ECytop (inhibitory cytopathic effect compared to the infection control) (ZIKV (Zika virus) [3]): +
23 | heparin [reference compound] |  |  |  |  | CC100 (100% cytotoxic concentration) (Vero-E6 cells; heparin): >100 U.I; Nontoxic concentration that showed higher viral reduction factor (HHV-1, 29R strain; Vero E6, EPTT, heparin): 10 U.I.; Nontoxic concentration that showed higher viral reduction factor ([2]; Vero E6, EPTT, heparin): 10 U.I.
24 | CC(C)c1cc2c(cc1O)[C@@]1(C)CCCC(C)(C)[C@@H]1CC2 [Compound 5, (+)-ferruginol] | >50 | not active | >50 | 38 ± 15 | % inhibition (PFU) [5]: 28 ± 10%; Rf (reduction factor of the viral titer) [2]: 10^2
25 | dextran sulfate [DS, reference compound] | >50 |  |  |  | Nontoxic concentration that showed higher viral reduction factor (HHV-1, 29R strain; Vero E6, 10TCID50, EPTT): 5 µg/mL
26 | CC(C)c1cc2c(cc1O)[C@@]1(C)CCC[C@@](C)(C(=O)O)[C@@H]1CC2 [Compound 19a, 12-hydroxydehydroabietic acid] | 25 |  | 12.5 |  | 
27 | CC(C)c1cc2c(cc1O)[C@@]1(C)CCC[C@](C)(CO)[C@@H]1CC2 [Compound 20b, 19-hydroxyferruginol] | 25 |  | 12.5 |  | Rf (reduction factor of the viral titer) [2]: 10^2; inhibition ECytop (inhibitory cytopathic effect compared to the infection control) (ZIKV (Zika virus) [3]): +
